Experimental data taken from patent US10807985B2 (Blueprint Medicines Corporation, priority 2013, dated 2020).
Entries after “also recorded” stand apart in the source; their conditions may differ.

Key:
D816V KIT = D816V KIT (Homo sapiens (Human), UniProt P10721, D816V); assay: KIT D816V assay at Km (Caliper electrophoretic mobility shift); details: biochemical, 15 uM ATP (Km), 90 minutes at 25 C; read-out: INH KIT D816V
PDGFRA D842V = PDGFRA D842V (Homo sapiens (Human), UniProt P16234, D842V); assay: PDGFRA D842V assay at Km (Caliper electrophoretic mobility shift); details: biochemical, 15 uM ATP (Km), 90 minutes at 25 C; read-out: INH PDFGRA D842V
Sequence of PDGFRA D842V (P16234 24-1089 D842V): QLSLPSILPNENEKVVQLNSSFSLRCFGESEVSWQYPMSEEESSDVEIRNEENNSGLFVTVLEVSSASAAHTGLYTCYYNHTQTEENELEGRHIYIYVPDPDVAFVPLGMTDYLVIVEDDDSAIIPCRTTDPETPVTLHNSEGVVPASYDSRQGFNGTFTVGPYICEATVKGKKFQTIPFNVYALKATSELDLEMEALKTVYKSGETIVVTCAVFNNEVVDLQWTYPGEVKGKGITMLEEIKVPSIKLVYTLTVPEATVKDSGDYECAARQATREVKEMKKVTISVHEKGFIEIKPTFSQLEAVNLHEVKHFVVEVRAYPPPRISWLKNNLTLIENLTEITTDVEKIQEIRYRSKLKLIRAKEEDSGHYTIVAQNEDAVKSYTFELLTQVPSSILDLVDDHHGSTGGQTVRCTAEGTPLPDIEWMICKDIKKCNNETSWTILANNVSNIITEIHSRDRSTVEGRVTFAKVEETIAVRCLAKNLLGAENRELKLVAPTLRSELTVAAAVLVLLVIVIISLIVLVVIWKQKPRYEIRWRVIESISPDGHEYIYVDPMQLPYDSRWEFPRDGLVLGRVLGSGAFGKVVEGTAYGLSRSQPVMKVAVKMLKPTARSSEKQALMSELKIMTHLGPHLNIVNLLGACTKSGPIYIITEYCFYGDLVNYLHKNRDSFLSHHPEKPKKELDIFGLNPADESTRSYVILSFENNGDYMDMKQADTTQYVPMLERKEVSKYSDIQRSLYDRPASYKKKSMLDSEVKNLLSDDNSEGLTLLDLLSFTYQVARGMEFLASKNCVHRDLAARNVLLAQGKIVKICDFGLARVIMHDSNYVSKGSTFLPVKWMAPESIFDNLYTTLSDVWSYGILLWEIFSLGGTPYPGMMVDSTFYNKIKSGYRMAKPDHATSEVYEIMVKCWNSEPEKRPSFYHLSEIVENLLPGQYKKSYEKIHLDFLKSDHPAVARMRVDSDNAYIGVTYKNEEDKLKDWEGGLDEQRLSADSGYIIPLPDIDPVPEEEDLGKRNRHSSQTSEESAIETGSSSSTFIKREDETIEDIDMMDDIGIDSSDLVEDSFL

[1] = target: KIT D816V kinase activity (KIT autophosphorylation at tyrosine 719) in HMC1.2 cells (Homo sapiens (Human), UniProt P10721, D816V/V560G); assay: HMC1.2 autophosphorylation assay (phospho-Y719 c-KIT AlphaLISA); format: cell-based; details: HMC1.2 mast cell leukemia cell line (KIT V560G, D816V), 90 minutes compound; read-out: INH-KIT-PHOS-HMC1.2
Sequence of KIT D816V kinase activity (KIT autophosphorylation at tyrosine 719) in HMC1.2 cells (P10721 26-976 V560G/D816V): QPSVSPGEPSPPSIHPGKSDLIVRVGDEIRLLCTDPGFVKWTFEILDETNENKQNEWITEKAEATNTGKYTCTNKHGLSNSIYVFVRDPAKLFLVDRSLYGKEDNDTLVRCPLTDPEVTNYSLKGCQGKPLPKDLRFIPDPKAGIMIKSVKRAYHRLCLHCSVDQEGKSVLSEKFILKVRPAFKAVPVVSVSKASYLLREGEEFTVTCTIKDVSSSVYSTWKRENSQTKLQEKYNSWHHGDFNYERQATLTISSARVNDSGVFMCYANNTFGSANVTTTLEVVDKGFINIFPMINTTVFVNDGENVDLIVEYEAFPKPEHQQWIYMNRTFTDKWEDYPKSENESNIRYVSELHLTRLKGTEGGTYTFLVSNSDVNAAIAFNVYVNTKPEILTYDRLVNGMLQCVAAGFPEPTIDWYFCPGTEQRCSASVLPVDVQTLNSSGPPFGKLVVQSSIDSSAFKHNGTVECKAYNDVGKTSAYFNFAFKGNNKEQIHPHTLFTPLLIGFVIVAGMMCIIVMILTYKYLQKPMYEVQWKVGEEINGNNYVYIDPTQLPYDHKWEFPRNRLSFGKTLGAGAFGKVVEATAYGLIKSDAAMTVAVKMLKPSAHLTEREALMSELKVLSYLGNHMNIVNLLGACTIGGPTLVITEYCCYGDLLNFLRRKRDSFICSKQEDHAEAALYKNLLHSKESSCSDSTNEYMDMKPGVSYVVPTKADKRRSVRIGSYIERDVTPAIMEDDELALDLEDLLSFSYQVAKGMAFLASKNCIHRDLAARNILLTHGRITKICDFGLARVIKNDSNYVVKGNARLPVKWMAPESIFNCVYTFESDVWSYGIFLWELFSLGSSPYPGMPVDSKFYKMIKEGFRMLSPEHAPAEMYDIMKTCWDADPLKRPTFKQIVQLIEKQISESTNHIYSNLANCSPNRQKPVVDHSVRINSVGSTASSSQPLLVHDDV

P815 tumor cells = assay: P815 mastocytoma xenograft model, tumor growth; format: in vivo, mouse; details: P815 xenograft in female BALB/c nude mice; 3, 10, 30, 100 mg/kg p.o. QD × 10
Experimental: Compound 46 and Dasatinib were evaluated in a P815 mastocytoma xenograft model. P815 tumor cells (ATCC, Manassas, Va., cat # ATCC® TIB-64) were maintained in vitro as a suspension and monolayer culture in RPMI1640 medium supplemented with 10% fetal calf serum at 37° C. in an atmosphere of 5% CO2 in air. The tumor cells were sub-cultured twice weekly by trypsin-EDTA treatment. The cells growing in an exponential growth phase were harvested and counted for tumor inoculation.
Tumor sizes were measured every other day in two dimensions using a caliper, and the volume was expressed in mm^3 using the formula: V=0.5 a×b^2 where a and b were the long and short diameters of the tumor, respectively. […] T-C was calculated with T as the median time (in days) required for the treatment group tumors to reach a predetermined size (e.g., 1000 mm^3), and C as the median time (in days) for the control group tumors to reach the same size. […]
TGI was calculated for each group using the formula: TGI (%)=[1−(Ti−T0)/(Vi−V0)]×100; Ti is the average tumor volume of a treatment group on a given day, T0 is the average tumor volume of the treatment group on the day of treatment start, Vi is the average tumor volume of the vehicle control group on the same day with Ti, and V0 is the average tumor volume of the vehicle group on the day of treatment start. Tumor weight was measured at the endpoint. […]

[2] = mouse, in vivo
[3] = Body weight changes in the tumor bearing mice (P815 xenograft)

Sequence of D816V KIT (P10721 26-976 D816V): as the sequence (P10721 26-976 V560G/D816V) above, with G535V counted along it

IC50 (D816V KIT)	IC50 (PDGFRA D842V)	IC50 [1]	SMILES	tumor growth inhibition (P815 tumor cells)	tolerability [2]	body weight change ([3]; Compound 46 3-100 mg/kg p.o. QD × 10, even at the higher doses)	body weight loss ([3]; Dasatinib 25 mg/kg p.o. BID × 10)
–	–	–	Cc1nc(Nc2ncc(C(=O)Nc3c(C)cccc3Cl)s2)cc(N2CCN(CCO)CC2)n1 [Dasatinib, reference compound]	–	–	–	more than 5%
1.01 to 10 nM	1.01 to 10 nM	< 50 nM	C[C@H](c1ccccc1)c1cnc(N2CCN(c3ncnn4cc(-c5cnn(C)c5)cc34)CC2)nc1 [Compound 9, (R)-6-(1-methyl-1H-pyrazol-4-yl)-4-(4-(5-(1-phenylethyl)pyrimidin-2-yl)piperazin-1-yl)pyrrolo[1,2-f][1,2,4]triazine]	–	–	–	–
< 1 nM	< 1 nM	< 50 nM	Cn1cc(-c2cc3c(N4CCN(c5ncc([C@@](C)(O)c6ccc(F)cc6F)cn5)CC4)ncnn3c2)cn1 [Compound 94]	–	–	–	–
10 to 100 nM	10 to 100 nM	> 10000 nM	COc1ccc(-c2cc3c(N4CCN(c5ncc(Cc6ccccc6)cn5)CC4)ncnn3c2)cc1 [Compound 18]	–	–	–	–
< 1 nM	< 1 nM	< 50 nM	Cn1cc(-c2cc3c(N4CCN(c5ncc([C@@](C)(CO)c6ccc(F)cc6)cn5)CC4)ncnn3c2)cn1 [Compound 78]	–	–	–	–

SMILES	IC50 (D816V KIT)	IC50 (PDGFRA D842V)	IC50 [1]	tumor growth inhibition (P815 tumor cells)	tolerability [2]	body weight change ([3]; Compound 46 3-100 mg/kg p.o. QD × 10, even at the higher doses)	body weight loss ([3]; Dasatinib 25 mg/kg p.o. BID × 10)
Cn1cc(-c2cc3c(N4CCN(c5ncc([C@@](C)(O)c6ccc(F)cc6)cn5)CC4)ncnn3c2)cn1 [Compound 46]	< 1 nM	< 1 nM	< 50 nM	effective in inhibiting tumor growth; also recorded: observable antitumor activity	well tolerated	less than 5%	–
